pIC50: −log10 of the molar value.
The compounds below were run against T1, human Cot/Tpl2 kinase (Homo sapiens, UniProt P41279) (assay: Tpl2/Cot kinase assay: GST-MEK1 phosphorylation detected by ELISA (DELFIA Eu)). Settings: 0.4 nM Tpl2, 35 nM GST-MEK1, 50 uM ATP, 1 h at 30° C.
T1 construct: human Cot/Tpl2 kinase construct encoding residues 30-398; 6His (N); made in house; host or cells: Sf9 insect cells, baculovirus system (BD Biosciences)
Assay type: biochemical
Summary of the method: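 His-tagged human Tpl2 from Sf9 cells, Ni-affinity and size-exclusion purified (monomer). 0.4 nM Tpl2 with 35 nM GST-MEK1, 50 uM ATP, MOPS pH 7.2, 1% DMSO, 1 h at 30° C; EDTA stop. MEK1 Ser217/221 phosphorylation detected by anti-phospho-MEK1 and Eu-labelled secondary ELISA; IC50 fitted.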

T1 sequence (P41279 30-398): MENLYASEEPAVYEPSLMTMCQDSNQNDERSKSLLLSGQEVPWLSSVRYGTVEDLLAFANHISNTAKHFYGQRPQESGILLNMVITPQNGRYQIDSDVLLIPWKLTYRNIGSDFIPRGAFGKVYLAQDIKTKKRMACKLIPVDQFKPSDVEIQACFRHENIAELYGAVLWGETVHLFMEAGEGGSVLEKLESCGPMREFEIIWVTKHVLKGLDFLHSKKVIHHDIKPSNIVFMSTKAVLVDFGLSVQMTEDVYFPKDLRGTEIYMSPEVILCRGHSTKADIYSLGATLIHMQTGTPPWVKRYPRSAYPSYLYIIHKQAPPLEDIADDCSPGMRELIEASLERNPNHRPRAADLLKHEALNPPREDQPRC

Question: `N#Cc1cccc(CNc2ccc3ncc(C#N)c(NC4CCCCCC4)c3c2)c1` [Example 247, 6-[(3-Cyanobenzyl)amino]-4-(cycloheptylamino)quinoline-3-carbonitrile] was tested. Which pIC50 did it give?
Answer: The pIC50 was 5.60.

Question: With `COc1c(C)c[n+]([O-])c(CNc2cc(Cl)c3ncc(C#N)c(Nc4ccc(F)c(Cl)c4)c3c2)c1C` [Example 277, 8-Chloro-4-[(3-chloro-4-fluorophenyl)amino]-6-{[(4-methoxy-3,5-dimethyl-1-oxidopyridin-2-yl)methyl]amino}quinoline-3-carbonitrile] as the compound, how does the pIC50 read?
Answer: The pIC50 was 7.18.

Question: How did the pIC50 turn out when `N#Cc1cnc2ccc(NCC3CCOCC3)cc2c1Nc1ccc(F)c(Cl)c1` [Example 61, 4-(3-Chloro-4-fluoro-phenylamino)-6-[(tetrahydro-pyran-4-ylmethyl)-amino]-quinoline-3-carbonitrile] was run?
Answer: Its pIC50 is 6.09.

Question: `CN(C)C(=O)c1cc(NCc2cccnc2)cc2c(Nc3cccc(Cl)c3)c(C#N)cnc12` [Example 71, 4-(3-chlorophenylamino)-3-cyano-N,N-dimethyl-6-(pyridin-3-ylmethylamino)quinoline-8-carboxamide] was tested. Which pIC50 did it give?
Answer: The pIC50 was 6.40.

Question: With `Cc1cc(CNc2ccc3ncc(C#N)c(Nc4ccc(F)c(Cl)c4)c3c2)n(C)n1` [Example 33, 4-(3-Chloro-4-fluoro-phenylamino)-6-[(2,5-dimethyl-2H-pyrazol-3-ylmethyl)-amino]-quinoline-3-carbonitrile] as the compound, how does the pIC50 read?
Answer: The pIC50 was 6.70.

Question: With `Cc1[nH]cnc1CNc1ccc2ncc(C#N)c(Nc3ccc(F)c(Cl)c3)c2c1` [Example 15, 4-(3-Chloro-4-fluoro-phenylamino)-6-[(5-methyl-3H-imidazol-4-ylmethyl)-amino]-quinoline-3-carbonitrile] as the compound, how does the pIC50 read?
Answer: The pIC50 was 7.82.

Question: With `N#Cc1cnc2c(Br)cc(NCc3cccnc3)cc2c1Nc1ccc(F)c(Cl)c1` [Example 77, 8-bromo-4-(3-chloro-4-fluorophenylamino)-6-(pyridin-3-ylmethylamino) quinoline-3-carbonitrile] as the compound, how does the pIC50 read?
Answer: The pIC50 was 6.96.

Question: With `N#Cc1cnc2ccc(NCc3cccc(F)c3)cc2c1Nc1ccc(F)c(Cl)c1` [Example 145, 6-(3-fluorobenzylamino)-4-(3-chloro-4-fluorophenylamino)quinoline-3-carbonitrile] as the compound, how does the pIC50 read?
Answer: Its pIC50 is 5.68.

Question: `N#Cc1ccc(CNc2cc(C(F)(F)F)c3ncc(C#N)c(Nc4ccc(F)c(Cl)c4)c3c2)cc1` [Example 234, 4-[(3-chloro-4-fluorophenyl)amino]-6-[(4-cyanobenzyl)amino]-8-(trifluoromethyl)quinoline-3-carbonitrile] was tested. Which pIC50 did it give?
Answer: The pIC50 was 4.82.

Question: With `COCC(=O)NCCn1cc(CNc2cc(Cl)c3ncc(C#N)c(Nc4ccc(F)c(Cl)c4)c3c2)nn1` [Example 219, N-(2-(4-((8-chloro-4-(3-chloro-4-fluorophenylamino)-3-cyanoquinolin-6-ylamino)methyl)-1H-1,2,3-triazol-1-yl)ethyl)-2-methoxyacetamide] as the compound, how does the pIC50 read?
Answer: Its pIC50 is 7.19.

Question: `N#Cc1cnc2c(Br)cc(NCc3cn(-c4ccc(C(=O)O)cc4)nn3)cc2c1Nc1ccc(F)c(Cl)c1` [Example 292, 4-(4-{[8-Bromo-4-(3-chloro-4-fluoro-phenylamino)-3-cyano-quinolin-6-ylamino]-methyl}-[1,2,3]triazol-1-yl)-benzoic acid] was tested. Which pIC50 did it give?
Answer: The pIC50 was 8.46.

Question: How did the pIC50 turn out when `COc1ccc(CNc2cc(Cl)c3ncc(C#N)c(Nc4ccc(F)c(Cl)c4)c3c2)cc1OCCN1CCOCC1` [Example 273, 8-Chloro-4-[(3-chloro-4-fluorophenyl)amino]-6-{[4-methoxy-3-(2-morpholin-4-ylethoxy)benzyl]amino}quinoline-3-carbonitrile] was run?
Answer: The pIC50 was 7.08.

Question: How did the pIC50 turn out when `N#Cc1cnc2c(Br)cc(NCc3cnc(-c4ccccc4)[nH]3)cc2c1Nc1ccc(F)c(Cl)c1` [Example 106, 8-bromo-4-(3-chloro-4-fluorophenylamino)-6-((2-phenyl-1H-imidazol-5-yl)methylamino)quinoline-3-carbonitrile] was run?
Answer: Its pIC50 is 5.23.

Question: With `COCCOc1ccc(CNc2ccc3ncc(C#N)c(Nc4ccc(F)c(Cl)c4)c3c2)cc1Br` [Example 24, 6-[3-Bromo-4-(2-methoxy-ethoxy)-benzylamino]-4-(3-chloro-4-fluoro-phenylamino)-quinoline-3-carbonitrile] as the compound, how does the pIC50 read?
Answer: The pIC50 was 6.42.

Question: `N#Cc1cnc2ccc(NC[C@H]3CCCN3)cc2c1Nc1ccc(F)c(Cl)c1` [Example 46, 4-(3-Chloro-4-fluoro-phenylamino)-6-[(D-pyrrolidin-2-ylmethyl)-amino]-quinoline-3-carbonitrile] was tested. Which pIC50 did it give?
Answer: The pIC50 was 4.52.

Same assay, conditions: Table 2; Tpl2/Cot kinase, GST-MEK1 substrate, 50 uM ATP

Question: How did the pIC50 turn out when `N#Cc1cnc2c(Cl)cc(NCc3cn(C4CCOCC4)nn3)cc2c1Nc1ccc(F)c(Cl)c1` [Example 570] was run?
Answer: The pIC50 was 7.85.

Question: How did the pIC50 turn out when `N#Cc1cnc2c(Br)cc(NCc3cc([C@@H]4CCCN4)n[nH]3)cc2c1Nc1ccc(F)c(Cl)c1` [Example 555] was run?
Answer: The pIC50 was 6.48.

Question: With `N#Cc1cnc2ccc(NCc3ccccn3)cc2c1Nc1ccccc1` [Example 361] as the compound, how does the pIC50 read?
Answer: The pIC50 was 6.60.

Question: How did the pIC50 turn out when `CS(=O)(=O)Cn1cc(CNc2cc(Br)c3ncc(C#N)c(Nc4ccc(F)c(Cl)c4)c3c2)nn1` [Example 531] was run?
Answer: The pIC50 was 7.48.

Question: With `N#Cc1cnc2c(Cl)cc(NCc3cn(CC(F)(F)F)nn3)cc2c1Nc1ccc(F)c(Cl)c1` [Example 491] as the compound, how does the pIC50 read?
Answer: The pIC50 was 7.64.

Question: How did the pIC50 turn out when `CC(C)(C)OC(=O)N1CCN(CCCn2cc(CNc3cc(Cl)c4ncc(C#N)c(Nc5ccc(F)c(Cl)c5)c4c3)nn2)CC1` [Example 592] was run?
Answer: The pIC50 was 6.64.

Question: How did the pIC50 turn out when `CS(=O)(=O)N1CCC(n2cc(CNc3cc(Br)c4ncc(C#N)c(Nc5ccc(F)c(Cl)c5)c4c3)nn2)CC1` [Example 525] was run?
Answer: Its pIC50 is 8.96.

Question: How did the pIC50 turn out when `COC(=O)c1cnc(CNc2cc(Cl)c3ncc(C#N)c(Nc4ccc(F)c(Cl)c4)c3c2)n1C` [Example 442] was run?
Answer: Its pIC50 is 5.47.

Question: `CN(C)Cc1cn(C2CCCC2Nc2cc(Cl)c3ncc(C#N)c(Nc4ccc(F)c(Cl)c4)c3c2)nn1` (centres unmarked) [Example 636] was tested. Which pIC50 did it give?
Answer: The pIC50 was less than 5.52.

Question: How did the pIC50 turn out when `N#Cc1cnc2ccc(NCc3cccc(C(N)=O)c3)cc2c1Nc1ccc(F)c(Cl)c1` [Example 399] was run?
Answer: Its pIC50 is 6.34.

Question: How did the pIC50 turn out when `N#Cc1cnc2c(Cl)cc(NCc3cn(CCOC(N)=O)nn3)cc2c1Nc1ccc(F)c(Cl)c1` [Example 599] was run?
Answer: Its pIC50 is 8.23.

Question: With `N#Cc1cnc2c(Br)cc([N+](=O)[O-])cc2c1Nc1cccc(Cl)c1` [Example 362] as the compound, how does the pIC50 read?
Answer: The pIC50 was less than 5.00.

Question: With `N#Cc1cnc2c(Br)cc(NCc3cn(C4CCCC4)cn3)cc2c1Nc1ccc(F)c(Cl)c1` [Example 632] as the compound, how does the pIC50 read?
Answer: The pIC50 was 6.64.

Question: With `Cc1cc2ncc(C#N)c(Nc3ccc(F)c(Cl)c3)c2cc1N` [Example 392] as the compound, how does the pIC50 read?
Answer: The pIC50 was less than 4.40.

Question: `N#Cc1cnc2c(Cl)cc(NC3CCCC3n3cc(CCO)nn3)cc2c1Nc1ccc(F)c(Cl)c1` (centres unmarked) [Example 635] was tested. Which pIC50 did it give?
Answer: The pIC50 was 7.17.

Question: `N#Cc1cnc2ccc(NCc3cccc[n+]3[O-])cc2c1NC1CCCC1` [Example 410] was tested. Which pIC50 did it give?
Answer: Its pIC50 is 5.89.

Question: How did the pIC50 turn out when `N#Cc1cnc2ccc(NCc3cccnc3)cc2c1NC1CCCC1` [Example 418] was run?
Answer: The pIC50 was 5.59.

Question: How did the pIC50 turn out when `N#Cc1cnc2c(Cl)cc(NC[C@@H]3CCCN3)cc2c1Nc1ccc(F)c(Cl)c1` [Example 619] was run?
Answer: Its pIC50 is less than 5.52.

Same assay, conditions: Tpl2/Cot kinase, GST-MEK1 substrate, 50 uM ATP

Question: `CC(C)(C)OC(=O)N1CCC(CCn2cc(CNc3cc(Cl)c4ncc(C#N)c(Nc5ccc(F)c(Cl)c5)c4c3)nn2)CC1` [Example 674] was tested. Which pIC50 did it give?
Answer: The pIC50 was 7.12.

Question: With `N#Cc1cnc2c(Cl)cc(NCc3cn(CCc4ccncc4)nn3)cc2c1Nc1ccc(F)c(Cl)c1` [Example 918] as the compound, how does the pIC50 read?
Answer: Its pIC50 is 9.05.

Question: With `CC(C)n1cnc(CNc2cc(Br)c3ncc(C#N)c(Nc4ccc(F)c(Cl)c4)c3c2)c1` [Example 804] as the compound, how does the pIC50 read?
Answer: Its pIC50 is 7.17.

Question: `N#Cc1cnc2c(Cl)cc(NCc3cn(CCN4CCOCC4)cn3)cc2c1Nc1ccc(F)c(Cl)c1` [Example 670] was tested. Which pIC50 did it give?
Answer: The pIC50 was 7.48.

Question: `N#Cc1cnc2c(Cl)cc(N(C=O)Cc3cn(CCCNC=O)nn3)cc2c1Nc1ccc(F)c(Cl)c1` [Example 915] was tested. Which pIC50 did it give?
Answer: Its pIC50 is 6.77.

Question: With `CCN1CCC[C@H]1CNc1cc(Cl)c2ncc(C#N)c(Nc3ccc(F)c(Cl)c3)c2c1` [Example 809] as the compound, how does the pIC50 read?
Answer: Its pIC50 is 6.48.

Question: With `N#Cc1cnc2c(Cl)cc(NCc3cn(CC(=O)NCc4cccnc4)nn3)cc2c1Nc1ccc(F)c(Cl)c1` [Example 819] as the compound, how does the pIC50 read?
Answer: Its pIC50 is 9.10.

Question: With `CCN(C[C@@H]1CCCN1CC)c1cc(Cl)c2ncc(C#N)c(Nc3ccc(F)c(Cl)c3)c2c1` [Example 811] as the compound, how does the pIC50 read?
Answer: Its pIC50 is 5.92.

Question: How did the pIC50 turn out when `N#Cc1cnc2c(Br)cc(NCc3cn(C45CC6CC(CC(C6)C4)C5)nn3)cc2c1Nc1ccc(F)c(Cl)c1` [Example 661] was run?
Answer: Its pIC50 is 5.77.

Question: With `N#Cc1cnc2c(Br)cc(NCc3cn(CCCN4CCNCC4)nn3)cc2c1Nc1ccc(F)c(Cl)c1` [Example 768] as the compound, how does the pIC50 read?
Answer: The pIC50 was 6.96.

Question: With `CN(C)C(=O)N1CCC[C@H]1Cn1cc(CNc2cc(Cl)c3ncc(C#N)c(Nc4ccc(F)c(Cl)c4)c3c2)nn1` [Example 900] as the compound, how does the pIC50 read?
Answer: Its pIC50 is 9.30.

Question: With `CC(C)(C)OC(=O)N1CCCN(CCCn2cc(CNc3cc(Cl)c4ncc(C#N)c(Nc5ccc(F)c(Cl)c5)c4c3)nn2)CC1` [Example 763] as the compound, how does the pIC50 read?
Answer: The pIC50 was 6.92.

Same assay, conditions: Tpl2/Cot kinase, GST-MEK1 substrate, 50 uM ATP, 1 h at 30° C.; Table 2

Question: `N#Cc1cnc2c(Cl)cc(NCc3cn(CCN4CCCCCC4)nn3)cc2c1NC1CCCC1` [Example 945] was tested. Which pIC50 did it give?
Answer: The pIC50 was 6.20.

Question: How did the pIC50 turn out when `N#Cc1cnc2c(Cl)cc(NCc3cncc(C4(O)CCNCC4)c3)cc2c1Nc1ccc(F)c(Cl)c1` [Example 1032] was run?
Answer: The pIC50 was less than 5.52.

Question: With `CC(C)N1CCC[C@H]1CCn1cc(CNc2cc(Br)c3ncc(C#N)c(Nc4ccc(F)c(Cl)c4)c3c2)nn1` [Example 942] as the compound, how does the pIC50 read?
Answer: The pIC50 was 7.72.

Question: With `N#Cc1cnc2c(Cl)cc(NCc3cn(C4CCC(O)CC4)nn3)cc2c1Nc1ccc(F)c(Cl)c1` (centres unmarked) [Example 1041] as the compound, how does the pIC50 read?
Answer: The pIC50 was 8.24.

Question: How did the pIC50 turn out when `N#Cc1cnc2c(Cl)cc(NCc3cncc(C4=CCNCC4)c3)cc2c1Nc1ccc(F)c(Cl)c1` [Example 1056] was run?
Answer: The pIC50 was 6.06.

Question: How did the pIC50 turn out when `N#Cc1cnc2c(Cl)cc(NCc3cn(C4CCN(CCO)CC4)nn3)cc2c1Nc1ccc(F)c(Cl)c1` [Example 992] was run?
Answer: The pIC50 was 8.70.

Question: `N#Cc1cnc2c(Cl)cc(NCc3cn(CCN4CCCCCC4)nn3)cc2c1Nc1ccc(Oc2ccccc2)cc1` [Example 988] was tested. Which pIC50 did it give?
Answer: The pIC50 was less than 5.52.

Question: How did the pIC50 turn out when `N#Cc1cnc2c(Cl)cc(NCc3cn(C4CCCN(CC(F)(F)F)CC4)nn3)cc2c1Nc1ccc(F)c(Cl)c1` (centres unmarked) [Example 1009] was run?
Answer: The pIC50 was 6.57.
